Series [1] in a line: Pharmacokinetics of d-amphetamine in male and female beagle dogs after oral administration, […]. The note with it: oral […] d-amphetamine base.
Series [2] can be described thus: Oral PK study at a high dose (60 mg/kg), 8 h time course. The note with it: rat; for Mean plasma amphetamine concentration: high dose 60 mg/kg.
A short description of series [3]: Intranasal bioavailability of L-lysine-d-amphetamine vs amphetamine (ELISA). The note with it: rat, 3 mg/kg. On the technique in general: ELISA stands for enzyme-linked immunosorbent assay.

Marks after values point to notes of the source that are not given here.

On to d-amphetamine, for which, in series [1] (Females), the Tmax of d-amphetamine came out at 1 h and the “Tmax of d-amphetamine, Percent (of Amp)” value amounted to 100%. Further, in series [1] (Males), the Tmax of d-amphetamine was found to be 1 h and the “Tmax of d-amphetamine, Percent (of Amp)” value was 100%. For the same substance, in series [2] (60 mg/kg), the AUC of d-amphetamine amounted to 13420 ng·h/mL, the “Animals that died or were sacrificed due to acute symptoms of toxicity” value was 8 of 12, the Cmax of d-amphetamine is 3623 ng/mL and the “Mean Peak of d-amphetamine” value was found to be 2973 ng/mL. Further, the “Mean Peak, Percent d-Amp” value in series [2] (60 mg/kg) was found to be 100%. In addition, the “Mean plasma amphetamine concentration” value in series [2] (0.5 h) worked out at 2643 ng/mL. For the same substance, the “Mean plasma amphetamine concentration” value in series [2] (1 h) was 2828 ng/mL. In series [2] (3 h (d-amphetamine n = 2)), the “Mean plasma amphetamine concentration” value is 2944* ng/ml. Also, the “Mean plasma amphetamine concentration” value in series [2] (5 h (d-amphetamine n = 2)) is reported as 153* ng/ml. Besides, the “Mean plasma amphetamine concentration” value in series [2] (8 h (d-amphetamine n = 1)) was 1309** ng/ml. In series [3] (hydrochloride salt study), the “AUC (0-[…]) of d-amphetamine” value amounted to 727 ng·h/mL and the Cmax of d-amphetamine is 1,377 ng/ml. Moreover, in series [3] (mesylate salt study), the “AUC (0-1.0 h) of d-amphetamine” value worked out at 573 ng·h/mL and the Cmax of d-amphetamine came out at 1114 ng/mL.

The values above are taken from patent US20090181898A1, “ABUSE-RESISTANT A[…]” (SHIRE LLC, priority 2002, published 2009).
